From PMC9258905, “Discovery of Quercetin and Its Analogs as Potent OXA-48 Beta-Lactamase Inhibitors” (Frontiers in Pharmacology, 2022)
Where two headings read alike, the source gives them in different places. Each block holds one molecule with its values, some of them ahead of it.

Assays:
[1] = biological target: T1, OXA-48 (Klebsiella pneumoniae, UniProt Q6XEC0); experiment: Enzyme inhibition assay against purified OXA-48 with nitrocefin as substrate; type: biochemical; conditions: for percent inhibition against OXA-48 / inhibition at 50 µM: nitrocefin substrate; for percent inhibition against OXA-48: 50 µM
T1 construct: made in house; host or cells: E. coli BL21(DE3)
T1 sequence (Q6XEC0 23-265 limits assumed): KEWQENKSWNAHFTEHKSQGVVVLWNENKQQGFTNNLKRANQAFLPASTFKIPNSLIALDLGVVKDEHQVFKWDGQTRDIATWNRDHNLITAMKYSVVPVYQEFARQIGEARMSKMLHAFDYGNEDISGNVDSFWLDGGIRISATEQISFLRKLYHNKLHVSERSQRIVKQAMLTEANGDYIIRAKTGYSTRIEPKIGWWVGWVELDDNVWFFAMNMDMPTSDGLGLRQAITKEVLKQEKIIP
Description: The inhibitory activity of compounds against the purified OXA-48 was tested on a BioTek HTS reader. The reactions were conducted in 0.1 M phosphate buffer (pH 7.0) supplemented with 50 mM NaHCO3 at 25°C with a final assay volume of 100 μL. The concentrations of enzyme and substrate were 12 nM and 200 μM, respectively. The initial reaction rates in the absence and presence of the compound were monitored at 495 nm in triplicate. The inhibitor concentration causing a 50% decrease in enzyme activity (IC50) was determined by plotting the percent inhibition against the log10 of the inhibitor concentration and fitting the data in a dose–response-inhibition model using GraphPad Prism 7.0.
Quercetin is a member of the flavonoid class with diverse structures obtained from nature, some of which have been used for the treatment of infectious diseases in traditional medical systems ([Farhadi et al., 2019]). To investigate whether quercetin and other flavonoids are OXA-48 inhibitors, the enzyme inhibition assays were conducted on a BioTek HTS reader using nitrocefin as a substrate. The concentrations of enzyme and substrate were 12 nM and 200 μM, respectively. The initial hydrolysis rate of nitrocefin was monitored at 495 nm. The percentage inhibition is defined as the enzyme activity in the absence of inhibitor (100%) minus the remaining activity in the presence of inhibitor.

[2] = test system: E.coli BW25113 ∆acrA∆bamB (OXA-48); type: cell-based
Description: (§1) The recombinant plasmid containing the Pbla promoter and OXA-48 constructed above was then transformed into BW25113, BW25113 ∆acrA, BW25113 ∆bamB, and BW25113 ∆acrA∆bamB. The above strains were used to study the minimum inhibitory concentration (MIC). Antibiotic susceptibility tests were performed by the microdilution method following Clinical and Laboratory Standards Institute (CLSI) criteria ([CLSI, 2015]). Four E. coli strains expressing OXA-48 were used to assess the inhibitors. The susceptibility to piperacillin/imipenem combined with the compound at a concentration of 16 or 64 μg/mL was determined. […] Each measurement was conducted in triplicate. The fractional inhibitory concentration index (FICI) was determined according to the following formula: FICI = MIC (QT) in combination/MIC (QT) alone + MIC (PIP) in combination/MIC (PIP) alone. The drug interactions are defined as synergistic if the FICI is ≤0.5, indifferent if the FICI is >0.5 and ≤4.0, and antagonistic if the FICI is >4.0.
(§2) To investigate whether the compounds could restore the antimicrobial activity of β-lactam, the MICs of β-lactam antibiotics against resistant Gram-negative bacteria in the absence and presence of compounds (fisetin, 3′,4′,7-trihydroxyflavone, luteolin or quercetin) were determined by using published guidelines described by CLSI ([CLSI, 2015]). Specifically, we used OXA-48 producing strains E. coli BW25113, BW25113 ∆acrA, BW25113 ∆bamB, and BW25113 ∆acrA∆bamB as resistant Gram-negative bacteria. […] Imipenem, a carbapenem antibiotic, was applied at increasing concentrations ranging from 0.03 μg/mL to 4 μg/mL. The compounds were tested at 64 and 16 μg/mL.

[3] = test system: E.coli BW25113 (OXA-48); type: cell-based
Description: as §1, §2

[4] = test system: E.coli BW25113 ∆bamB (OXA-48); type: cell-based
Description: as §1, §2

[5] = test system: E.coli BW25113 ∆acrA (OXA-48); type: cell-based
Description: as §1, §2

[6] = test system: E. coli BW25113 ∆acrA∆bamB (OXA-48); experiment: Mouse systemic infection model; type: in vivo, Kunming mice; conditions: 10 mg/kg each, intravenous, 1 h post infection; organs 24 h post-infection; vs untreated group
[7] = read-out: percent inhibition against OXA-48, at 50 μM compound

Compound: O=c1c(O)c(-c2ccccc2)oc2cc(O)cc(O)c12 [Galangin]
IC50 [1]: 216 ± 15 µM | percent inhibition against OXA-48 ([1]; at 50 μM compound): 3% | percent inhibition against OXA-48 ([1]; at 50 μM compound, listed as galangin): less than 20%

Compound: C[C@@H]1O[C@@H](OC[C@H]2O[C@@H](Oc3c(-c4ccc(O)c(O)c4)oc4cc(O)cc(O)c4c3=O)[C@H](O)[C@@H](O)[C@@H]2O)[C@H](O)[C@H](O)[C@H]1O [Rutin]
percent inhibition against OXA-48 ([1]; at 50 μM compound): 9% | inhibitory activity against OXA-48 (in words) ([1]; larger group at position 3): no inhibitory activity

Compound: O=c1cc(-c2ccc(O)c(O)c2)oc2cc(O)ccc12 [3′,4′,7-trihydroxyflavone]
reduction in the piperacillin MIC ([2]; compound at 64 μg/mL): 8 fold | IC50 [1]: 1.89 ± 0.11 µM | percent inhibition against OXA-48 ([1]; at 50 μM compound): more than 50% | percent inhibition against OXA-48 ([1]; at 50 μM compound, listed as 3',4',7-trihydroxyflavone): 80%

Compound: O=C1C[C@@H](c2ccc(O)cc2)Oc2cc(O)cc(O)c21 [Naringenin]
IC50 [1]: 68.1 ± 4.12 µM | inhibition at 50 µM ([1]; at 50 μM compound, read-out: percent inhibition against OXA-48): 27%

percent inhibition against OXA-48 ([1]; at 50 μM compound): 11% | inhibition at 50 µM [1, 7]: < 20%
Compound: COc1ccc(-c2cc(=O)c3c(O)cc(O[C@@H]4O[C@H](CO[C@@H]5O[C@@H](C)[C@H](O)[C@@H](O)[C@H]5O)[C@@H](O)[C@H](O)[C@H]4O)cc3o2)cc1O [Diosmin]

Compound: C[C@@H](O)[C@H]1C(=O)N2C(C(=O)O)=C(SCCN=CN)C[C@H]12 [Imipenem]
Antibiotic MIC ([2]; inhibitor at 16 mg/L): 4 µg/mL | Antibiotic MIC ([2]; inhibitor at 64 mg/L): 4 µg/mL | Antibiotic MIC ([3]; inhibitor at 16 mg/L): 4 µg/mL | Antibiotic MIC ([3]; inhibitor at 64 mg/L): 4 µg/mL | Antibiotic MIC ([4]; inhibitor at 16 mg/L): 4 µg/mL | Antibiotic MIC ([4]; inhibitor at 64 mg/L): 4 µg/mL | Antibiotic MIC ([5]; inhibitor at 16 mg/L): 4 µg/mL | Antibiotic MIC ([5]; inhibitor at 64 mg/L): 4 µg/mL

Compound: O=C(O)[C@H]1O[C@@H](Oc2cc3oc(-c4ccccc4)cc(=O)c3c(O)c2O)[C@H](O)[C@@H](O)[C@@H]1O [Baicalin]
inhibition at 50 µM [1, 7]: 25%

Compound: COc1ccc(-c2cc(=O)c3c(OC)c(OC)c(OC)c(OC)c3o2)cc1 [Tangeretin]
inhibition at 50 µM [1, 7]: 7%

Compound: CCN1CCN(C(=O)N[C@@H](C(=O)N[C@@H]2C(=O)N3[C@@H]2SC(C)(C)[C@@H]3C(=O)O)c2ccccc2)C(=O)C1=O [Piperacillin]
bacterial load in spleen and liver [6]: did not show a significant reduction of bacterial load | increase in the piperacillin susceptibility ([2]; codeletion of bamB and acrA vs wild type): 8 fold | Antibiotic MIC ([2]; inhibitor at 16 mg/L): 512 µg/mL | Antibiotic MIC ([2]; inhibitor at 64 mg/L): 512 µg/mL | Antibiotic MIC ([3]; inhibitor at 16 mg/L): 4096 µg/mL | Antibiotic MIC ([3]; inhibitor at 64 mg/L): 4096 µg/mL | increase in the piperacillin susceptibility ([4]; deletion of bamB alone vs wild type): 4 fold | Antibiotic MIC ([4]; inhibitor at 16 mg/L): 1024 µg/mL | Antibiotic MIC ([4]; inhibitor at 64 mg/L): 1024 µg/mL | Antibiotic MIC ([5]; inhibitor at 16 mg/L): 4096 µg/mL | Antibiotic MIC ([5]; inhibitor at 64 mg/L): 4096 µg/mL

Compound: O=c1cc(-c2ccc(O)cc2)oc2cc(O)cc(O)c12 [Apigenin]
IC50 [1]: 3.64 ± 0.24 µM | percent inhibition against OXA-48 ([1]; at 50 μM compound): 77% | percent inhibition against OXA-48 ([1]; at 50 μM compound, listed as apigenin): more than 50%

Compound: O=c1cc(-c2ccccc2)oc2cc(O)cc(O)c12 [Chrysin]
IC50 [1]: 108 ± 11 µM | percent inhibition against OXA-48 ([1]; at 50 μM compound): 8% | percent inhibition against OXA-48 ([1]; at 50 μM compound, listed as chrysin): less than 20%

Compound: O=c1c(O[C@@H]2O[C@H](CO)[C@@H](O)[C@H](O)[C@H]2O)c(-c2ccc(O)c(O)c2)oc2cc(O)cc(O)c12 [Isoquercitrin]
percent inhibition against OXA-48 ([1]; at 50 μM compound): 61% | IC50 ([1]; purified OXA-48 12 nM, nitrocefin 200 μM, 0.1 M phosphate buffer pH 7.0, 50 mM NaHCO3, 25°C, read-out: IC50 against OXA-48): 11.5 ± 1.22 µM | inhibition at 50 µM [1, 7]: > 50%

Compound: O=c1c(O)c(-c2ccc(O)cc2)oc2cc(O)cc(O)c12 [Kaempferol]
IC50 [1]: 4.54 ± 0.05 µM | percent inhibition against OXA-48 ([1]; at 50 μM compound): 76% | percent inhibition against OXA-48 ([1]; at 50 μM compound, listed as kaempferol): more than 50%

Compound: O=C1c2c(O)cc(O)cc2OC(c2ccc(O)c(O)c2)C1O (centres unmarked) [Taxifolin]
IC50 [1]: 3.22 ± 0.23 µM | percent inhibition against OXA-48 ([1]; at 50 μM compound): 76%

Compound: COc1ccc(-c2oc3c(CC=C(C)C)c(O[C@@H]4O[C@H](CO)[C@@H](O)[C@H](O)[C@H]4O)cc(O)c3c(=O)c2O[C@@H]2O[C@@H](C)[C@H](O)[C@@H](O)[C@H]2O)cc1 [Icariin]
percent inhibition against OXA-48 ([1]; at 50 μM compound): 0.3% | percent inhibition against OXA-48 ([1]; at 50 μM compound, listed as icarlin): less than 20%
